These results are taken from patent publication US20240133897A1, “COMPOSITIONS AND METHODS FOR IDENTIFYING AND MODULATING THROMBOTIC CONDITIONS IN A CANCER PATIENT” (Beth Israel Deaconess Medical Center, Inc., priority 2019, published 2024).

In assay [1] the test system is HPAF-II cells. In words: Flow cytometry of TF-bearing extracellular vesicles from HPAF-II cells after UPR induction. It counts as cell-based. Particulars: for increase in the generation of TF-bearing EVs: HPAF-II cells following UPR induction, flow cytometry. From the text:
(§1) The unfolded protein response (UPR) is associated with malignant transformation in pancreatic cancer, but whether or not activation of the UPR is linked to cancer thrombosis has not previously been evaluated. To determine whether UPR signaling functions in the prothrombotic transformation of pancreatic cancer, pancreatic adenocarcinoma cells (HPAF-II cells) were exposed to three UPR inducers (tunicamycin, triptolide and thapsigargin) that act via independent mechanisms. […] Release of thrombogenic material was inhibited by siRNA-mediated knockdown of UPR components including IRE1α (80%±3% decrease) or PERK (60%±10% decrease). […] Apoptosis as detected by caspase-3 cleavage was not observed under these conditions.
Background: Flow cytometry measures light scatter and fluorescence of single cells or particles in a stream.

The test system of assay [2] is HPAF-II cells. In words: Thrombin generation by material released from HPAF-II cells after UPR induction. It counts as cell-based. Particulars: for increase in thrombin generation in pelleted material: pancreatic adenocarcinoma HPAF-II cells exposed to UPR inducers, supernatant pelleted material; for decrease in thrombin generation (release of thrombogenic material): HPAF-II cells, UPR induced, chemical inhibition or siRNA knockdown of UPR components.
Description: as §1

For `C/C=C(/C)C(=O)O[C@H]1C(C)=C2[C@H]([C@@H]1OC(=O)CCCCCCC)[C@@](C)(OC(C)=O)C[C@H](OC(=O)CCC)[C@@]1(O)[C@H]2OC(=O)[C@@]1(C)O` [thapsigargin], the “increase in the generation of TF-bearing EVs” value (from here on “increase in the generation”) in the assay on HPAF-II cells [1] is reported as 3 fold. The “increase in thrombin generation in pelleted material” value (shortened to “increase in thrombin generation”) in the assay on HPAF-II cells [2] is 3 fold. As for `C[C@H]1CCC/C=C/[C@@H]2C[C@H](O)C[C@H]2[C@H](O)/C=C/C(=O)O1` [Brefeldin A], the “inhibition of UPR-induced generation of TF-bearing EVs” value in the assay on HPAF-II cells [1] (HPAF-II cells, UPR induced) is “inhibited”.

On to tunicamycin, for which, in the assay on HPAF-II cells [1], the “increase in the generation” value stood at 3 fold. For the same compound, in the assay with HPAF-II cells [2], the “increase in thrombin generation” value is 3 fold. Turning to `CN1CCN(C(=O)c2ccc(-c3ccc4c(C=O)c(O)ccc4c3)s2)CC1` [MKC-3946], the “decrease in thrombin generation (release of thrombogenic material)” value with HPAF-II cells [2] is recorded as 70%±10%. Regarding `CC(C)[C@]12O[C@H]1[C@@H]1O[C@]13[C@]1(O[C@H]1C[C@H]1C4=C(CC[C@@]13C)C(=O)OC4)[C@@H]2O` [triptolide], the “increase in the generation” value in the assay on HPAF-II cells [1] stood at 3 fold. Besides, the “increase in thrombin generation” value in the assay with HPAF-II cells [2] was 3 fold. For the compound `Cn1cc(-c2ccc3c(c2)CCN3C(=O)Cc2cccc(C(F)(F)F)c2)c2c(N)ncnc21` [GSK2606414], in the assay with HPAF-II cells [2], the “decrease in thrombin generation (release of thrombogenic material)” value is recorded as 80%±5%.
